Key:
Assay in all cases: relative viability (nuclei count vs DMSO), 5 days (fraction); higher = more cells survive
[1] = compound: C=CCn1c(=O)c2cnc(Nc3ccc(N4CCN(C)CC4)cc3)nc2n1-c1cccc(C(C)(C)O)n1 [Adavosertib] + CC1(C)CCC(c2ccc(Cl)cc2)=C(CN2CCN(c3ccc(C(=O)NS(=O)(=O)c4ccc(N[C@H](CCN5CCOCC5)CSc5ccccc5)c(S(=O)(=O)C(F)(F)F)c4)cc3)CC2)C1 [Navitoclax] (partner 0.5 µM)
Procedure, shortened: (§1)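 Five library-drug doses in √10 steps were combined with a fixed anchor-drug dose, or a single drug was given alone, by pin tool to lung cancer cell lines in 1536-well plates the day after seeding. Nuclei were stained and counted after 5 days. Relative viability is the nuclei count in treated wells over that in vehicle wells, taken as the median of duplicate plates.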

[2] = compound: C=CCn1c(=O)c2cnc(Nc3ccc(N4CCN(C)CC4)cc3)nc2n1-c1cccc(C(C)(C)O)n1 [Adavosertib] + CS(=O)(=O)CCNCc1ccc(-c2ccc3ncnc(Nc4ccc(OCc5cccc(F)c5)c(Cl)c4)c3c2)o1 [Lapatinib] (partner 2 µM)
Procedure, shortened: as §1

[3] = compound: COc1nc(N)nc2c1ncn2[C@@H]1O[C@H](CO)[C@@H](O)[C@@H]1O [Nelarabine] + CCNC(=O)c1noc(-c2cc(C(C)C)c(O)cc2O)c1-c1ccc(CN2CCOCC2)cc1 [Luminespib] (partner 0.01 µM)
Procedure, shortened: as §1

[4] = compound: COc1nc(N)nc2c1ncn2[C@@H]1O[C@H](CO)[C@@H](O)[C@@H]1O [Nelarabine] + Cc1nc(Nc2ncc(C(=O)Nc3c(C)cccc3Cl)s2)cc(N2CCN(CCO)CC2)n1 [Dasatinib] (partner 0.075 µM)
Procedure, shortened: as §1

Row | Cell Line | relative viability ([1]; first compound 0.01 µM) | relative viability ([1]; first compound 0.03162 µM) | relative viability ([1]; first compound 0.1 µM) | relative viability ([1]; first compound 0.3162 µM) | relative viability ([2]; first compound 0.01 µM) | relative viability ([2]; first compound 0.03162 µM) | relative viability ([2]; first compound 0.1 µM) | relative viability ([2]; first compound 0.3162 µM) | relative viability ([3]; first compound 0.01 µM) | relative viability ([3]; first compound 0.03162 µM) | relative viability ([3]; first compound 0.1 µM) | relative viability ([3]; first compound 0.3162 µM) | relative viability ([3]; first compound 1 µM) | relative viability ([4]; first compound 0.01 µM) | relative viability ([4]; first compound 0.03162 µM) | relative viability ([4]; first compound 0.1 µM) | relative viability ([4]; first compound 0.3162 µM) | relative viability ([4]; first compound 1 µM)
1 | NCI-H1915 | 0.831 | 0.766 | 0.804 | 0.786 | 0.984 | 0.923 | 1.02 | 0.959 | 1.31 | 0.87 | 0.912 | 0.841 | 0.988 | 0.337 | 0.36 | 0.281 | 0.296 | 0.364
2 | ABC-1 | – | – | – | – | 1.12 | 1.09 | 1.24 | 1.26 | 0.71 | 0.705 | 0.535 | 0.309 | 0.859 | 0.705 | 0.462 | 0.507 | 0.548 | 0.545
3 | NCI-H358 | – | – | – | – | 0.355 | 0.429 | 0.46 | 0.431 | 0.409 | – | 0.28 | 0.308 | 0.309 | 0.17 | 0.144 | 0.148 | 0.145 | 0.154
4 | HCC-366 | 0.983 | 1.07 | 1.12 | 1.08 | 1.09 | 1.07 | 1.08 | 1.13 | – | – | – | – | – | 0.907 | 0.71 | 0.588 | 0.79 | 0.661
5 | EBC-1 | 0.416 | 0.413 | 0.448 | 0.205 | 0.198 | 0.206 | 0.25 | 0.21 | – | – | – | – | – | – | – | – | – | –
6 | NCI-H1650 | 1.15 | 1.26 | 1.25 | 1.1 | 0.75 | 0.884 | 0.747 | 0.379 | 0.195 | 0.181 | 0.225 | 0.234 | 0.204 | 0.265 | 0.329 | 0.27 | 0.305 | 0.329
7 | NCI-H1395 | 1.15 | 1.17 | 1.25 | 0.986 | 0.824 | 1.31 | 1.03 | 0.78 | 0.666 | 0.691 | 0.773 | 0.707 | 0.987 | 0.418 | 0.39 | 0.413 | 0.408 | 0.408
8 | SW 900 | – | – | – | – | – | – | – | – | 0.175 | 0.175 | 0.173 | 0.179 | 0.179 | 0.555 | 0.439 | 0.524 | 0.623 | 0.639
9 | NCI-H1666 | 0.927 | 0.83 | 0.935 | 0.673 | 0.618 | 0.667 | 0.65 | 0.575 | 0.991 | 0.962 | 0.898 | 1 | 1 | 0.835 | 0.855 | 0.719 | 0.878 | 0.934
10 | COR-L23 | 1.14 | 1.03 | 1.14 | 0.293 | 1.06 | 1.09 | 0.769 | 0.415 | 0.973 | 0.796 | 0.576 | 0.906 | 0.869 | 0.611 | 0.442 | 0.502 | 0.543 | 0.402
11 | ChaGo-K-1 | 0.84 | 0.877 | 0.934 | 0.729 | – | – | – | – | 0.821 | 0.361 | 0.637 | 0.659 | 0.562 | 0.624 | 0.515 | 0.533 | 0.707 | 0.568
12 | SW 1573 | 1.07 | 0.988 | 1.29 | 0.926 | 1.22 | 1.36 | 1.14 | 1.08 | 0.168 | 0.174 | 0.164 | 0.34 | 0.229 | 0.422 | 0.453 | 0.394 | 0.485 | 0.494
13 | NCI-H23 | 0.89 | 0.677 | 0.938 | 0.368 | 0.935 | 1.25 | 0.855 | 0.328 | 0.226 | 0.201 | 0.23 | 0.225 | 0.21 | 1.01 | 0.838 | 0.588 | 0.927 | 0.819
14 | NCI-H1299 | 1.08 | 1.03 | 1.06 | 1.06 | 0.954 | 0.968 | 0.977 | 0.431 | – | – | – | – | – | – | – | – | – | –
15 | NCI-H1944 | 1.05 | 1.02 | 1.07 | 1.02 | 0.765 | 0.709 | 0.908 | 0.783 | 0.925 | 0.775 | 0.793 | 0.73 | 0.745 | 0.211 | 0.213 | 0.196 | 0.185 | 0.194
16 | PC-3 [JPC-3] | 0.842 | 0.782 | 0.797 | 0.716 | 0.445 | 0.418 | 0.47 | 0.429 | 0.651 | 0.429 | 0.697 | 0.703 | 0.601 | 1.03 | 1.01 | 0.938 | 1.04 | 0.97
17 | NCI-H2126 | 0.882 | 0.871 | 0.871 | 0.894 | 0.736 | 0.781 | 0.764 | 0.829 | 1.04 | 0.951 | 0.822 | 0.892 | 0.977 | 0.701 | 0.55 | 0.43 | 0.692 | 0.639
18 | HCC-827 | 1.06 | 1.07 | 1.18 | 0.993 | 0.198 | 0.2 | 0.215 | 0.191 | 0.889 | 0.68 | 0.644 | 0.511 | 0.385 | 0.431 | 0.241 | 0.166 | 0.295 | 0.361
19 | H3255 | 0.374 | 0.473 | 0.508 | 0.447 | 0.25 | 0.251 | 0.219 | 0.203 | – | 0.889 | 1 | 0.853 | 0.737 | – | 0.427 | 0.367 | 0.345 | 0.309
20 | NCI-H838 | 1.16 | 1.11 | 1.18 | 1.13 | 0.975 | 0.921 | 0.976 | 1.07 | 0.316 | 0.321 | 0.31 | 0.257 | 0.221 | 0.276 | 0.217 | 0.225 | 0.321 | 0.374

From the supplement of paper PMC10307832
